PubChem BioAssay AID256 (DTP/NCI, 2004)
“And” between values parts separate entries of the source, which are not always exact repeats. Identical values can stand only once. Toxic doses and inconclusive results are not listed.

Test system: CD2F1 mice, L1210 leukemia ip, survival T/C
Test: NCI In Vivo Anticancer Drug Screen. Data for tumor model L1210 Leukemia (intraperitoneal) in CD2F1 (CDF1) mice
Details: endpoint: mean survival time, higher = longer survival
Method in brief: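 Vehicle-treated tumor-bearing mice served as controls (C) for compound-treated mice (T). Reported figure is T divided by C.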

[1] = dose: 25.0 mg/kg/injection, schedule: Q01DX009 (ip), vehicle: saline
[2] = dose: 25.0 mg/kg/injection, schedule: Q04DX003 (ip), vehicle: saline with Tween-80
[3] = dose: 50.0 mg/kg/injection, schedule: Q04DX003 (ip), vehicle: saline with Tween-80
[4] = dose: 100.0 mg/kg/injection, schedule: Q04DX003 (ip), vehicle: saline with Tween-80
[5] = dose: 100.0 mg/kg/injection, schedule: Q01DX009 (ip), vehicle: saline with Tween-80
[6] = dose: 200.0 mg/kg/injection, schedule: Q01DX009 (ip), vehicle: saline with Tween-80
[7] = dose: 400.0 mg/kg/injection, schedule: Q01DX009 (ip), vehicle: saline with Tween-80
[8] = dose: 100.0 mg/kg/injection, schedule: Q01DX009 (ip), vehicle: saline
[9] = dose: 100.0 mg/kg/injection, schedule: Q01DX001 (ip), vehicle: saline with Tween-80
[10] = dose: 200.0 mg/kg/injection, schedule: Q01DX001 (ip), vehicle: saline with Tween-80
[11] = dose: 400.0 mg/kg/injection, schedule: Q01DX001 (ip), vehicle: saline with Tween-80
[12] = dose: 200.0 mg/kg/injection, schedule: Q04DX003 (ip), vehicle: saline with Tween-80

## O=C(CCBr)N1CCN(C(=O)CCBr)CC1
dose: 4.0 mg/kg/injection, schedule: Q03HX016 (ip), vehicle: saline
  T/C: 100 % of control
dose: 4.0 mg/kg/injection, schedule: Q03HX024 (ip), vehicle: saline
  T/C: 100 % of control
dose: 8.0 mg/kg/injection, schedule: Q03HX016 (ip), vehicle: saline
  T/C: 101 % of control
dose: 8.0 mg/kg/injection, schedule: Q03HX016 (oral), vehicle: saline
  T/C: 93 % of control
dose: 8.0 mg/kg/injection, schedule: Q03HX024 (ip), vehicle: saline
  T/C: 110 % of control
dose: 8.0 mg/kg/injection, schedule: Q03HX024 (oral), vehicle: saline
  T/C: 119 % of control
dose: 16.0 mg/kg/injection, schedule: Q03HX008 (ip), vehicle: saline
  T/C: 120 % of control
dose: 16.0 mg/kg/injection, schedule: Q03HX008 (oral), vehicle: saline
  T/C: 124 % of control
dose: 16.0 mg/kg/injection, schedule: Q03HX016 (ip), vehicle: saline
  T/C: 117 % of control
dose: 16.0 mg/kg/injection, schedule: Q03HX016 (oral), vehicle: saline
  T/C: 100 % of control
dose: 16.0 mg/kg/injection, schedule: Q03HX024 (ip), vehicle: saline
  T/C: 172 % of control
dose: 16.0 mg/kg/injection, schedule: Q03HX024 (oral), vehicle: saline
  T/C: 123 % of control
[1]
  T/C: 124 % of control
dose: 25.0 mg/kg/injection, schedule: Q03DX003 (ip), vehicle: saline
  T/C: 115 % of control
dose: 25.0 mg/kg/injection, schedule: Q04DX003 (ip), vehicle: saline
  T/C: 108 % of control
dose: 32.0 mg/kg/injection, schedule: Q01DX009 (ip), vehicle: saline
  T/C: 161 % of control
dose: 32.0 mg/kg/injection, schedule: Q01DX009 (oral), vehicle: saline
  T/C: 150 % of control
dose: 32.0 mg/kg/injection, schedule: Q03HX008 (ip), vehicle: saline
  T/C: 160 % of control
dose: 32.0 mg/kg/injection, schedule: Q03HX008 (oral), vehicle: saline
  T/C: 151 % of control
dose: 32.0 mg/kg/injection, schedule: Q03HX016 (ip), vehicle: saline
  T/C: 207 % of control
dose: 32.0 mg/kg/injection, schedule: Q03HX016 (oral), vehicle: saline
  T/C: 162 % of control
dose: 32.0 mg/kg/injection, schedule: Q03HX024 (ip), vehicle: saline
  T/C: 101 % of control
dose: 32.0 mg/kg/injection, schedule: Q03HX024 (oral), vehicle: saline
  T/C: 94 % of control
dose: 32.0 mg/kg/injection, schedule: Q04DX003 (ip), vehicle: saline
  T/C: 118 % of control
dose: 32.0 mg/kg/injection, schedule: Q08DX002 (ip), vehicle: saline
  T/C: 98 % of control
dose: 50.0 mg/kg/injection, schedule: Q03DX003 (ip), vehicle: saline
  T/C: 124 % of control
dose: 50.0 mg/kg/injection, schedule: Q04DX003 (ip), vehicle: saline
  T/C: 123 % of control
dose: 64.0 mg/kg/injection, schedule: Q01DX009 (ip), vehicle: saline
  T/C: 156 % of control
dose: 64.0 mg/kg/injection, schedule: Q01DX009 (oral), vehicle: saline
  T/C: 122 % of control
dose: 64.0 mg/kg/injection, schedule: Q04DX003 (ip), vehicle: saline
  T/C: 162 % of control
dose: 64.0 mg/kg/injection, schedule: Q08DX002 (ip), vehicle: saline
  T/C: 115 % of control
dose: 64.0 mg/kg/injection, schedule: Q08DX002 (oral), vehicle: saline
  T/C: 109 % of control
dose: 100.0 mg/kg/injection, schedule: Q01DX007 (ip), vehicle: saline
  T/C: 120 % of control
dose: 100.0 mg/kg/injection, schedule: Q03DX003 (ip), vehicle: saline
  T/C: 167 % of control
dose: 128.0 mg/kg/injection, schedule: Q01DX001 (oral), vehicle: saline
  T/C: 150 % of control
dose: 128.0 mg/kg/injection, schedule: Q01DX009 (oral), vehicle: saline
  T/C: 105 % of control
dose: 128.0 mg/kg/injection, schedule: Q04DX003 (ip), vehicle: saline
  T/C: 176 % of control
dose: 128.0 mg/kg/injection, schedule: Q04DX003 (oral), vehicle: saline
  T/C: 157 % of control
dose: 128.0 mg/kg/injection, schedule: Q08DX002 (ip), vehicle: saline
  T/C: 167 % of control
dose: 256.0 mg/kg/injection, schedule: Q01DX001 (ip), vehicle: saline
  T/C: 157 % of control
dose: 256.0 mg/kg/injection, schedule: Q01DX009 (oral), vehicle: saline
  T/C: 88 % of control
dose: 256.0 mg/kg/injection, schedule: Q08DX002 (ip), vehicle: saline
  T/C: 194 % of control
dose: 256.0 mg/kg/injection, schedule: Q08DX002 (oral), vehicle: saline
  T/C: 156 % of control
dose: 512.0 mg/kg/injection, schedule: Q08DX002 (oral), vehicle: saline
  T/C: 156 % of control

## CC(C)(C)OC(=O)N1CCCC1C(=O)Oc1ccc([N+](=O)[O-])cc1 (configuration not stated)
[2]
  T/C: 98 % of control
[3]
  T/C: 95 % of control
[4]
  T/C: 92 % of control and 93 % of control

## Fc1ccccc1OCC1CO1 (configuration not stated)
dose: 100.0 mg/kg/injection, schedule: Q01DX001 (ip), vehicle: saline
  T/C: 114 % of control
dose: 200.0 mg/kg/injection, schedule: Q01DX001 (ip), vehicle: saline
  T/C: 110 % of control
dose: 400.0 mg/kg/injection, schedule: Q01DX001 (ip), vehicle: saline
  T/C: 108 % of control

## Brc1ccc(-c2nc3sc(-c4ccc(Br)cc4)nc3s2)cc1
[5]
  T/C: 108 % of control
[6]
  T/C: 104 % of control
[7]
  T/C: 102 % of control

## O=C(O)/C=C/C(=O)NCCCCCCNC(=O)/C=C/C(=O)O
[8]
  T/C: 91 % of control
dose: 200.0 mg/kg/injection, schedule: Q01DX009 (ip), vehicle: saline
  T/C: 94 % of control
dose: 400.0 mg/kg/injection, schedule: Q01DX009 (ip), vehicle: saline
  T/C: 91 % of control

## NC(CCCCNC(c1ccccc1)(c1ccccc1)c1ccccc1)C(=O)O (configuration not stated)
[1]
  T/C: 96 % of control
dose: 50.0 mg/kg/injection, schedule: Q01DX009 (ip), vehicle: saline
  T/C: 94 % of control
[8]
  T/C: 103 % of control

## COc1cc(N(C)C)ccc1/C=C\c1ccnc2ccccc12
dose: 50.0 mg/kg/injection, schedule: Q01DX001 (ip), vehicle: saline with Tween-80
  T/C: 96 % of control
[9]
  T/C: 95 % of control
[10]
  T/C: 95 % of control
[11]
  T/C: 93 % of control

## CCOC(=O)c1cnc(=O)[nH]c1N
dose: 25.0 mg/kg/injection, schedule: Q01DX009 (ip), vehicle: saline with Tween-80
  T/C: 101 % of control
[2]
  T/C: 104 % of control
dose: 50.0 mg/kg/injection, schedule: Q01DX009 (ip), vehicle: saline with Tween-80
  T/C: 104 % of control
[3]
  T/C: 98 % of control
[5]
  T/C: 96 % of control
[4]
  T/C: 89 % of control and 100 % of control
[12]
  T/C: 98 % of control

## Cc1ccc(-n2c(O)c(N=Nc3ccccc3)c(=O)n(-c3ccccc3)c2=S)cc1
[9]
  T/C: 100 % of control
[10]
  T/C: 100 % of control
[11]
  T/C: 86 % of control

## CC(=O)Nc1ccc(C(C)=O)cc1[N+](=O)[O-]
[5]
  T/C: 91 % of control
[4]
  T/C: 101 % of control
[6]
  T/C: 95 % of control
[12]
  T/C: 100 % of control
[7]
  T/C: 95 % of control
dose: 400.0 mg/kg/injection, schedule: Q04DX003 (ip), vehicle: saline with Tween-80
  T/C: 100 % of control

## C[N+]12CCN(CC1)CC2
dose: 100.0 mg/kg/injection, schedule: Q04DX003 (ip), vehicle: saline
  T/C: 102 % of control
dose: 200.0 mg/kg/injection, schedule: Q04DX003 (ip), vehicle: saline
  T/C: 104 % of control
dose: 400.0 mg/kg/injection, schedule: Q04DX003 (ip), vehicle: saline
  T/C: 104 % of control

## Nc1nc(N)c2[nH]c(-c3ccccc3[N+](=O)[O-])nc2n1
dose: 12.5 mg/kg/injection, schedule: Q01DX005 (ip), vehicle: water
  T/C: 96 % of control
dose: 25.0 mg/kg/injection, schedule: Q01DX005 (ip), vehicle: water
  T/C: 89 % of control
dose: 50.0 mg/kg/injection, schedule: Q01DX005 (ip), vehicle: water
  T/C: 87 % of control
dose: 100.0 mg/kg/injection, schedule: Q01DX005 (ip), vehicle: water
  T/C: 96 % of control
dose: 200.0 mg/kg/injection, schedule: Q01DX005 (ip), vehicle: water
  T/C: 96 % of control
